{"source": "patent US7462618B2", "about": "“Treatment of inflammatory autoimmune diseases with alpha-adrenergic antagonists and beta-adrenergic agonists” (Sun Health Research Institute, priority 2003, dated 2008)", "key": {"Lewis rats with AA [1]": {"test_system": "Lewis rats with AA", "test": "Adjuvant-induced arthritis, dorsoplantar footpad width (Example 1)", "assay_type": "in vivo, rat", "details": "single drug i.p. twice a day from day 12; by day 28 post-adjuvant injection", "experimental": "Lewis rats with AA, a model for RA, were used to examine the combined action of the β2-adrenergic receptor agonist terbutaline and the non-specific α-AR antagonist phentolamine. AA was induced in adult male Lewis rats (200-225 gm) by a base of the tail intradermal injection of complete Freund's adjuvant (CFA). The CFA (0.03 g dried and heat killed Mycobacterium butyricum (Difco, Detroit, Mich.) emulsified in 10 ml sterile mineral oil) was prepared by grinding the M. butyricum with a mortar and pestle until the bacterial cell wall turned from a light beige to an eggshell white powder. The mineral oil was then slowly worked into the bacterial cell wall using the mortar and pestle. The suspension was treated with a sonic dismembraner for 5 minutes to ensure that the bacterial cell wall remained suspended in the mineral oil for animal injections. While there was variability in the severity of disease development between the preparations of adjuvant, there was very little variability within individual batches. […] The inflammatory response in the arthritic rats was assessed by routine methods previously described. Dorsoplantar width of the hind feet were measured using a Mitutoyo Corporation dial thickness gauge, beginning the day of CFA-immunization and continued approximately every other day until sacrifice. […]"}, "IL-10/TNFα": {"test_system": "IL-10/TNFα", "test": "Ex vivo IL-10 and TNFα production by cells of treated AA rats (sandwich ELISA)", "assay_type": "in vivo, rat", "details": "for Ratio of IL-10/TNFα: cells cultured 24 h, mean ± SEM, N = 6", "source_text": "To determine if the adrenergic drug treatments were able to modify cytokine patterns in the secondary lymphoid organs and systemically in the blood, pro- and anti-inflammatory cytokine profiles were obtained ex vivo from cells harvested from the draining (inguinal and poplitial) lymph nodes, spleen and the PBMC from the animals described above. All tissue culture media and supplements were obtained from Gibco BRL (Rockville, Md.) unless otherwise stated. OPTIA sandwich ELISA kits for IL-10 and TNFα were purchased from Pharmingen (San Diego, Calif.). The spleen and lymph nodes were aseptically removed from the animal and placed into Hank's balanced salt solution (HBSS). The spleens were placed in a stomacher bag and homogenized for 30 seconds. […] The collected cells were centrifuged and re-suspended in 5 ml of a NH4Cl hypotonic buffer for 3 min to lyse the red blood cells. The cells were washed 2× with 10 ml HBSS, centrifuged and re-suspended into complete RPMI 1640 media supplemented with 5% fetal calf serum and 1% antibiotic/antimycotic. The draining (inguinal and poplitial) lymph nodes were placed into sterile etri dishes containing 5 ml HBSS. […] The homogenates then were passed through a nylon mesh, centrifuged and re-suspended in 5 ml HBSS. The cells then were centrifuged and re-suspended into complete RPMI 1640 media supplemented with 5% fetal calf serum and 1% antibiotic/antimycotic. PBMCs: Blood was collected using cardiac puncture into a 7 ml lithium heparin vaccutainer tubes. The tubes were inverted 7 times and then spun down at 1000 rpm for 15 minutes at 10° C. The buffy coat was removed using a 2 ml pipette and placed into a sterile 15 ml tube containing 10 ml of a NH4Cl hypotonic buffer for 3 min to lyse the red blood cells. The peripheral blood mononuclear cells (PBMC) were centrifuged and re-suspended in 10 ml HBSS. The PBMC were washed three more times with 10 ml HBSS, centrifuged and re-suspended into complete RPMI 1640 media supplemented with 5% fetal calf serum and 1% antibiotic/antimycotic. The prepared cells were counted using a hemocytometer, then brought to the concentration of 2×10^6 cells/ml. Two ml of the cell preparation were plated into 24 well plates (Falcon, Oxnard, Calif.), and in placed in an incubator 7% CO2, 37° C., for 24 h. After 24 h the culture supernatants were harvested and placed in the freezer at -70° C. until ELISA assay. Optia kits for the detection of IL-10 and TNFα were obtained from BD Pharmingen (Los Angeles, Calif.) and sandwich ELISAs were used to measure the amount cytokine released into the culture media. In brief: High binding microtiter 96-well plates were pre-coated with 100 μl of capture antibody in coating buffer (0.1 M carbonate buffer, pH 9.5) for IL-2, IL-4, IFNγ and TNFα and (0.2 M phosphate buffer, pH 6.5) for IL-10. The plates were sealed with plate film (Denville Scientific, South Plainfield, N.J.) and placed at 4° C. overnight. The plates were allowed to come to room temperature and washed with 0.1 M phosphate buffered saline-0.5% Tween 20 (PBS-Tw20). The non-specific binding was blocked using PBS-Tw20 and 1% bovine serum albumin. Standard/sample was then added to each well, the plates were sealed and incubated overnight at 4° C. The plate was washed three times with PBS-Tw20 and biotinylated secondary detection antibody and streptavidin/avidin enzyme conjugate (diluted in PBS-1% bovine serum albumin) were added to the wells and the plates incubated for 1.5 h. The plates were then washed and developed with (TMB) reagent (Pharmingen, San Diego, Calif.) for 30 minutes. After color development the plates were stopped with addition of IN sulfuric acid. Unknown sample cytokine levels were determined through comparison with a standard curve present on each plate using an ELISA reader ([…]: Bio Tek Instruments Incorporated, Winooski, Vt.). […]"}, "Lewis rats with AA [2]": {"test_system": "Lewis rats with AA", "test": "Adjuvant-induced arthritis, radiographic scores of hind limbs (Example 1)", "assay_type": "in vivo, rat", "details": "i.p. twice a day from day 12; day 28", "experimental": "Lewis rats with AA, a model for RA, were used to examine the combined action of the β2-adrenergic receptor agonist terbutaline and the non-specific α-AR antagonist phentolamine. AA was induced in adult male Lewis rats (200-225 gm) by a base of the tail intradermal injection of complete Freund's adjuvant (CFA). The CFA (0.03 g dried and heat killed Mycobacterium butyricum (Difco, Detroit, Mich.) emulsified in 10 ml sterile mineral oil) was prepared by grinding the M. butyricum with a mortar and pestle until the bacterial cell wall turned from a light beige to an eggshell white powder. The mineral oil was then slowly worked into the bacterial cell wall using the mortar and pestle. The suspension was treated with a sonic dismembraner for 5 minutes to ensure that the bacterial cell wall remained suspended in the mineral oil for animal injections. While there was variability in the severity of disease development between the preparations of adjuvant, there was very little variability within individual batches. All animals in each experiment were challenged with the same preparation of adjuvant and 100% of the animals developed arthritis. Phentolamine (an α-adrenergic receptor antagonist) and terbutaline (a β2-adrenergic receptor agonist) were obtained from Sigma Chemical Company (St. Louis, Mo.). Both adrenergic drugs were dissolved in 0.01 mM ascorbic acid in 0.9% sterile, endotoxin-free saline. Adrenergic therapy with phentolamine and/or terbutaline or vehicle was started on day 12 post-immunization, the time of disease onset, and continued until sacrifice. The dose of phentolamine (500 μg/Kg/day) and/or terbutaline (600 μg/day) were administered by intraperitoneal (i.p.) injections twice a day in a total volume of 500 μl per injection. […] X-rays were evaluated using a grading scale modified from Ackerman and coworkers. […] The radiographs were scored for each of the following characteristics: (1) swelling as indicated by the width of soft tissue shadows and alterations in the normal configuration of the soft tissue planes; (2) osteoporosis as measured by bone density (recognized by increases in radiolucency relative to uninvolved adjacent bone); (3) cartilage loss shown by narrowing of the joint spaces; and (4) heterotopic ossification defined as proliferation of new bone tissue (fine ossified line paralleling normal bone but not contiguous with calcified area of the bone itself). The radiographic scores for each category were added for both hind limbs giving a maximum score of 40, and the individual scores for each animal were then averaged within the treatment groups and expressed as a mean±standard error of the mean (SEM), and subjected to Kruskal-Wallis statistical analysis (non-parametric statistic equivalent to an ANOVA; p<0.05) followed by Dunn post-hoc testing. […]"}, "[3]": {"test_system": "animals with fully expressed AA", "details": "cited from earlier work"}, "[4]": {"test_system": "Th cells cultured with B cell clones", "details": "applied to Th cells before activation, cited from earlier work"}, "Th1 cell clones": {"test_system": "Th1 cell clones", "details": "cited from earlier work"}, "Th2 cell clones": {"test_system": "Th2 cell clones", "details": "treated before activation; cited from earlier work"}, "[5]": {"test_system": "collagen-induced arthritis", "details": "in vivo; cited from earlier work"}}}
{"compound": "Cc1ccc(N(CC2=NCCN2)c2cccc(O)c2)cc1", "note": "[Phentolamine]", "values": [{"measurement": "Soft tissue swelling (dorsoplantar footpad width) compared with vehicle-treated AA rats", "setting": "Lewis rats with AA [1]", "value": "significantly decreased"}, {"measurement": "Ratio of IL-10/TNFα", "setting": "IL-10/TNFα; DLN", "value": "1.0960 ± 0.1961"}, {"measurement": "Ratio of IL-10/TNFα", "setting": "IL-10/TNFα; PBL", "value": "0.8067 ± 0.1762"}, {"measurement": "Ratio of IL-10/TNFα", "setting": "IL-10/TNFα; SPL", "value": "3.3350 ± 0.6716"}, {"measurement": "Ratio of anti- to pro-inflammatory cytokine production by macrophage cells", "setting": "IL-10/TNFα; secondary lymphoid organs and peripheral blood", "value": "increase"}, {"measurement": "Decrease in bone loss compared to vehicle-treated AA rats", "setting": "Lewis rats with AA [2]", "value": 51, "unit": "%"}, {"measurement": "Radiographic scores compared with vehicle controls", "setting": "Lewis rats with AA [2]", "value": "significantly reduced"}]}
{"compound": "O=P(O)(O)C(Cl)(Cl)P(=O)(O)O", "note": "[clodronate]", "values": [{"measurement": "Joint inflammation and destruction", "setting": "[3]", "value": "significantly reduced"}]}
{"compound": "CC(C)(C)NCC(O)c1cc(O)cc(O)c1", "note": "(centres unmarked) [Terbutaline, terbutaline]", "values": [{"measurement": "IgG2a production", "setting": "[4]; blockable by nadolol or IFNγ", "value": "inhibited"}, {"measurement": "IgG1 production", "setting": "[4]", "value": "not"}, {"measurement": "Soft tissue swelling (dorsoplantar footpad width) compared with vehicle-treated AA rats", "setting": "Lewis rats with AA [1]", "value": "significantly decreased"}, {"measurement": "IL-2-dependent T cell proliferation", "setting": "Th1 cell clones", "value": "reduced"}, {"measurement": "IL-2 and IFNγ production by Th1 cell clones", "setting": "Th1 cell clones; treated before activation with antigen-specific B cells or anti-CD3 antibodies", "value": "inhibits"}, {"measurement": "Ratio of IL-10/TNFα", "setting": "IL-10/TNFα; DLN", "value": "1.5060 ± 0.1642"}, {"measurement": "Ratio of IL-10/TNFα", "setting": "IL-10/TNFα; PBL", "value": "0.4382 ± 0.0471"}, {"measurement": "Ratio of IL-10/TNFα", "setting": "IL-10/TNFα; SPL", "value": "2.1370 ± 0.8285"}, {"measurement": "Decrease in bone loss compared to vehicle-treated AA rats", "setting": "Lewis rats with AA [2]", "value": "~50", "unit": "%"}, {"measurement": "Radiographic scores compared with vehicle controls", "setting": "Lewis rats with AA [2]", "value": "significantly reduced"}, {"measurement": "IL-4 or IL-10 production by Th2 cell clones", "setting": "Th2 cell clones", "value": "does not affect"}]}
{"compound": "CC(C)(C)NCC(O)c1ccc(O)c(CO)c1", "note": "(centres unmarked) [salbutamol]", "values": [{"measurement": "Severity of collagen-induced arthritis", "setting": "[5]", "value": "reduces the severity"}]}
